The record followed here is patent US10292949B2, “Pharmaceutical composition comprising rimeporide for treating diseases associated with insulin resistance and β-cell dysfunction” (Merck Patent GmbH, priority 2008, dated 2019).

The nature of this data set: Pharmacological Study Report I: body weight of ZF (fa/fa) rats during 4 weeks of treatment. Format: in vivo, rat. Particulars: age 8-12 weeks, Compound A 150 mg/kg gavage twice daily, Compound B 40 mg/kg/day in chow. The method, then:
Obese, insulin resistant ZF (fa/fa) rats, which are treated from the age of 8-12 weeks, were used as IR model. Rats were housed with a 12-h light/dark cycle and free access to food and water unless otherwise noted. Studies were approved by the Institutional Animal Care and Use Committee. There were a total of 18 animals in the study (8 week-old males, provided by Charles River). Animals were randomized into 3 groups (vehicle group, Compound A group, Compound B group, n=6 per group) based on random glucose level at the beginning of the study: • Group 1: ZF rats (fa/fa) (n=6), compound A (150 mg/kg via gavage) • Group 2: ZF rats (fa/fa) (n=6), compound B (40 mg/kg/day as admixture to the chow) • Group 3: ZF rats (fa/fa) (n=6), vehicle treatment (control chow, vehicle gavage)
Group 1 and 3 animals were treated with compound A or vehicle (water) for 4 weeks (from age 8-12 weeks) via oral gavage, twice daily. Chow containing compound B was fed to Group 2 ad lib. Group 1 and Group 3 were fed with chow without compound B ad lib.

`CC(C)c1ccc(C(=O)NC(=N)N)cc1S(C)(=O)=O` [Compound A, Cariporide]: the “Body weight, difference among vehicle- and compound-treated groups” value was “no significant differences”.
